Experimental data taken from article PMC9944328 (Nature Communications, 2023).
Entries after “also recorded” stand apart in the source; their conditions may differ. Read-outs that look alike come from different tables or passages of the source.

Legend:
SSTR2 [1] = target: SSTR2 (Homo sapiens, UniProt P30874); test: Bystander BRET endosomal trafficking (β-arrestin 1-Nluc, FYVE-mVenus), HEK293 (SSTR2 wild-type); type: cell-based; set-up: The human full-length SSTRs and mutants were cloned into the pcDNA3.1+ vector; expressed in transfected cells; host or cells: HEK293; settings: for Bottom / LogEC50 / Span / Top: best-fit value;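 as to all read-outs here: HEK293 cells coexpressing Nluc-tagged β-arrestin 1 and mVenus-fused FYVE endosomal marker, bystander BRET ratio read after ligand addition, coelenterazine h substrate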
Chain of SSTR2 (Homo sapiens, UniProt P30874) (P30874 whole entry, the tested form may be a part): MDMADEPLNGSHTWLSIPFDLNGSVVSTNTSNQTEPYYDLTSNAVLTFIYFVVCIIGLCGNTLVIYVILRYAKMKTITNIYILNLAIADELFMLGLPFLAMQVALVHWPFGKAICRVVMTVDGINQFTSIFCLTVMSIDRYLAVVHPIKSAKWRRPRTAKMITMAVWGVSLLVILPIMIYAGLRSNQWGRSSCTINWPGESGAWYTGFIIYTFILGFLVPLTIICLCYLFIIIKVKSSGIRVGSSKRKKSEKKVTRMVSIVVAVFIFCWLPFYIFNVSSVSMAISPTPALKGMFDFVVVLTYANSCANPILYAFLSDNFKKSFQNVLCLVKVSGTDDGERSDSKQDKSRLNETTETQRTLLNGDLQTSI
Experimental: Wild-type or mutant SSTR2, β-arrestin 1-Nluc and FYVE-mVenus were co-transfected in HEK293 cells at a ratio of 1:0.5:4 on six-well plates. The next day, the transfected cells were plated on white 96-well and incubated overnight, and then cells were incubated with 90 µL HBSS containing 20 mM HEPES and coelenterazine h (5 µM) at room temperature for 40 min. After incubation, ligand was added and the signal was measured using the Synergy H1 microplate reader (BioTek) to determine a BRET ratio.

SSTR3 mutants [2] = target: SSTR3 mutants (Homo sapiens, UniProt P32745); test: SSTRs Gi-mediated cAMP inhibition, GloSensor, HEK293 (SSTR3 mutants); type: cell-based; set-up: Bottom / Top / Span / Top (best-fit): unit not given here
Chain of SSTR3 mutants (Homo sapiens, UniProt P32745) (P32745 whole entry N104V): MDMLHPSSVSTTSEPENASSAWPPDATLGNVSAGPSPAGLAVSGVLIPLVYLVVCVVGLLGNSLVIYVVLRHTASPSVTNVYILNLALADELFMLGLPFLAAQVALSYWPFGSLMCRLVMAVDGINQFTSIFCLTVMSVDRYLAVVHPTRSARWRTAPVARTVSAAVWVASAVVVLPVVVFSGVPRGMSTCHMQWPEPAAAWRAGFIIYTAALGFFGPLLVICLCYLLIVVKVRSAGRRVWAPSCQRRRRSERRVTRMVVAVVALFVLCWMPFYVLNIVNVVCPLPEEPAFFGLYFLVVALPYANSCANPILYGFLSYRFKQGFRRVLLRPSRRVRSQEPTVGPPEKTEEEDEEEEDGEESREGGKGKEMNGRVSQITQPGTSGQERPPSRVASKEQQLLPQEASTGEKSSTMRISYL
Experimental: (§1) The levels of the intracellular 3′, 5′-cyclic AMP (cAMP) were measured by the GloSensor cAMP assay (Promega) as described in the previous studies[28],[41] which has been widely used. The human full-length SSTRs and mutants were cloned into the pcDNA3.1+ vector with a HA signal sequence followed by a Flag tag at the N-terminus. […] Cells were then co-transfected with SSTR wild-type or mutants and GloSensor plasmids. After 24 h of transfection, the cells were dissociated with TrypLE™ Express Enzyme (1X) (Thermo Fisher Scientific) and collected by centrifugation at 500 × g for 5 min. Then the collected cells were suspended in Hank’s balanced salt solution [HBSS (Thermo Fisher Scientific)] supplemented with […] potassium salt solution (YEASEN), and then the suspension cells were seeded into 96-well plates with 90 μl/well. After incubating at room temperature for 40 min, 5 μM forskolin and ligands diluted in HBSS were added to each well and the plates were incubated at room temperature for 15 min. […] signals were measured using the Synergy H1 microplate reader (BioTek) and the data presented are means of at least three independent experiments.

SSTR3 mutants [3] = target: T1, SSTR3 mutants (Homo sapiens, UniProt P32745, H192T); test: as above; type: cell-based; set-up: Bottom / Top / Span / Top (best-fit): unit not given here
T1 construct: The human full-length SSTRs and mutants were cloned into the pcDNA3.1+ vector; expressed in transfected cells; host or cells: HEK293 (ATCC, CRL-1573)
T1 sequence (P32745 whole entry H192T): as the sequence (P32745 whole entry N104V) above, with V104N, H192T counted along it
Experimental: as §1

SSTR2 [4] = test: SSTR2 internalization by ELISA, HEK293, 30 min 37 °C (wild-type); type: cell-based, human
Experimental: HEK293 cells were seeded into 96-well microplates at a density of 4 × 10^4 cells/well and cultured for 24 h at 37 °C with 5% CO2 and were transfected using the same procedure as the cAMP accumulation assay. The plates were washed with washing buffer (PBS) the day after transfection, and were fixed with 4% formalin at room temperature for 30 min. Cells were washed with washing buffer and blocked with PBS supplemented with 5% BSA for 1 h at room temperature. After that, cells were incubated with anti-Flag antibody (1:1000 diluted with PBS containing 5% BSA, Proteintech: 66008-4-Ig) for 1 h at room temperature. After 1 h incubation, cells were washed with washing buffer and incubating with HRP-conjugated secondary antibody for 2 h at room temperature. After incubating and washing, 50 μl of chromogenic solution was added to each well, and reacted at room temperature for 10 min, and then 0.5 M HCl were added to stop the reaction.
All data presented are means at least three independent experiments.

SSTR2 [5] = test: Bias factor (β value), Gi cAMP inhibition versus β-arrestin recruitment; type: cell-based, human
Experimental: as §1
The NanoBiT β-arrestin 1 recruitment assays were carried out according to the method described previously. […] Human full-length SSTR wild-type and mutant vectors were C-terminally fused with a 15-amino acid flexible linker and the small fragment (SmBiT). HEK293 cells were seeded into six-well microplates at a density of 1.0 × 10^6 cells/well and cultured for 24 h at 37 °C with 5% CO2. After that, cells were co-transfected with pcDNA3.1+ vectors encoding SSTR wild-type or mutants and human β-arrestin 1. After transfecting for 24 h, the transfected cells were suspended and seeded into white 96-well plates, and then cultured at 37 °C overnight. After that the medium in each well was exchanged for 90 μl of 0.01% bovine serum albumin containing 20 μl of 50 μM coelenterazine h (Carbosynth) diluted in the HBSS assay buffer and incubated for 40 min at room temperature. Then, ligands diluted in the assay buffer was added to each well and the luminescence intensity was measured using the Synergy H1 microplate reader and detected at room temperature in a time period. All data presented are means of at least three independent experiments.
All data in this study were analyzed using GraphPad Prism 7 and were expressed as the error bars and the standard error of means ± SEM from at least n = 3 biologically independent experiments performed in triplicate. All curve data were normalized to the maximal wild-type and processed using a sigmoidal dose response curve in GraphPad Prism 7. Statistical differences between conditions were determined by one-way of variance ANOVA with Dunnett’s test or T-test.

[6] = WT-1 (F265A, I284A, K291A blocks)
[7] = WT-2 (F265A, I284A, K291A blocks)
[8] = WT-2 of N276A block = WT-3 of F294A block
[9] = WT-3 (F265A, I284A, K291A blocks)
[10] = WT-3 of N276A block = WT-2 of F294A block

## N#Cc1cccc(-c2ccc3ncc(-c4cc(F)cc(F)c4)c(N4CCC(N)CC4)c3c2)c1O [paltusotine]
SSTR2 [1]; Bystander BRET EC50, SSTR2-WT
  Fold of WT: 1.00
SSTR2 [1]; EC50, Bystander BRET, SSTR2-WT, n=6
  EC50: 122 ± 1.31 nM
SSTR2 [1]; EC50, best-fit value, WT-1 (F265A, I284A, K291A blocks)
  EC50: 40.4 nM
SSTR2 [1]; EC50, best-fit value, WT-1 (N276A, F294A blocks)
  EC50: 250 nM
SSTR2 [1]; EC50, best-fit value, WT-2 (F265A, I284A, K291A blocks)
  EC50: 131 nM
SSTR2 [1]; EC50, best-fit value, WT-2 of N276A block = WT-3 of F294A block
  EC50: 219 nM
SSTR2 [1]; EC50, best-fit value, WT-3 (F265A, I284A, K291A blocks)
  EC50: 58.5 nM
SSTR2 [1]; EC50, best-fit value, WT-3 of N276A block = WT-2 of F294A block
  EC50: 202 nM
SSTR2 [1]; HEK293
  Emax: 100%
SSTR2 [1]; WT-1 (run 1)
  Bottom (best-fit): 1.413
  LogEC50 (best-fit): -7.394
  Span (best-fit): 100
  Top (best-fit): 101.4
SSTR2 [1]; WT-2 (run 2)
  Bottom (best-fit): -7.096
  LogEC50 (best-fit): -6.882
  Span (best-fit): 113.5
  Top (best-fit): 106.4
SSTR2 [1]; WT-3 (run 3)
  Bottom (best-fit): -1.006
  LogEC50 (best-fit): -7.233
  Span (best-fit): 104.3
  Top (best-fit): 103.3
SSTR2 [1]; [6]
  Bottom: 1.413
  LogEC50: -7.394
  Span: 100
  Top: 101.4
SSTR2 [1]; WT-1 (N276A, F294A blocks)
  Bottom: -1.996
  LogEC50: -6.603
  Span: 108.2
  Top: 106.2
SSTR2 [1]; [7]
  Bottom: -7.096
  LogEC50: -6.882
  Span: 113.5
  Top: 106.4
SSTR2 [1]; [8]
  Bottom: -1.129
  LogEC50: -6.66
  Span: 107.2
  Top: 106.1
SSTR2 [1]; [9]
  Bottom: -1.006
  LogEC50: -7.233
  Span: 104.3
  Top: 103.3
SSTR2 [1]; [10]
  Bottom: -1.982
  LogEC50: -6.696
  Span: 107.7
  Top: 105.7
SSTR3 mutants [2]; HEK293
  Emax: 90.7 ± 7.93%
SSTR3 mutants [2]; Suppl. Tables 4/5, SSTR3 N101(2.64)V
  Fold of WT: 1.31
SSTR3 mutants [2]; Suppl. Tables 4/5, SSTR3 N101(2.64)V, n=3
  EC50: 83.7 ± 1.31 nM
SSTR3 mutants [2]; best-fit, SSTR3 N101V-1
  Bottom: 2.574
  EC50: 85.3 nM
  LogEC50: -7.069
  Span: 181.5
SSTR3 mutants [2]; best-fit, SSTR3 N101V-2
  Bottom: 5.233
  LogEC50: -7.01
  Span: 137.4
SSTR3 mutants [2]; best-fit, SSTR3 N101V-3
  Bottom: 5.233
  LogEC50: -7.01
  Span: 137.4
SSTR3 mutants [3]
  EC50: 58.1 ± 1.43 nM
SSTR3 mutants [3]; HEK293
  Emax: 108 ± 8.99%
SSTR3 mutants [3]; Suppl. Tables 4/5, SSTR3 H192(45.51)T
  Fold of WT: 0.91
SSTR3 mutants [3]; best-fit, SSTR3 H192T-1
  Bottom: 14.85
  LogEC50: -7.173
  Span: 475
  Top: 489.8
SSTR3 mutants [3]; best-fit, SSTR3 H192T-1, read-out: EC50
  EC50: 67.2 nM
SSTR3 mutants [3]; best-fit, SSTR3 H192T-2
  Bottom: 37.09
  LogEC50: -7.251
  Span: 569.9
  Top: 607
SSTR3 mutants [3]; best-fit, SSTR3 H192T-2, read-out: EC50
  EC50: 56 nM
SSTR2 [4]; SSTR2 WT, compared with octreotide, Fig. 1d–f
  Receptor internalization: less receptor internalization
SSTR2 [4]; same concentration for both drugs, also confocal and Bystander BRET
  Internalization of wild-type SSTR2: reduced
SSTR2 [5]; CWxP, PIF, DRY and NPxxY motif mutants versus wild-type SSTR2
  Effect of microswitch mutations: decreased the potency of β-arrestin recruitment more markedly than the activation ability of Gi signaling
SSTR2 [5]; D122(3.32) and Q126(3.36) mutants
  Effect of mutants on both signals: markedly affected both β-arrestin and Gi signal
SSTR2 [5]; SSTR2, compared with octreotide
  Signal bias: more G protein-biased ligand than octreotide; also recorded: better G-protein-biased agonist of SSTR2 compared with octreotide
